Values quoted from earlier work in US20180242917A1, “SYSTEMS AND METHODS FOR DETERMINING IMAGE QUALITY AND MODELS BASED ON CONTRAST INJECTION PROTOCOLS” (Duke University, priority 2015, published 2018).

Set-up: unit not given here
Conditions: used to calculate total EC fluid volume (18.9 L incl. 3 L plasma) for a 70-kg adult patient

SMILES: CC(=O)N(CC(O)CO)c1c(I)c(C(=O)NCC(O)CO)c(I)c(C(=O)NCC(O)CO)c1I (stereo not shown) [iohexol]
- apparent volume value of distribution: 0.27
